From the NIST ThermoML archive (doi:10.1021/je2012633)
± gives the expanded uncertainty stated by the source.

Tests used:
[1] = 101 kPa, Liquid, Vibrating tube method
[2] = xn = mol fraction of the nth substance listed; conditions: 101 kPa, Liquid, Vibrating tube method

CCCCCCCCOS(=O)(=O)[O-].CCn1cc[n+](C)c1 [1-ethyl-3-methylimidazolium octyl sulfate]
[1]
Conditions	mass density [kg/m3]
288.15 K	1100.7 ± 1
298.15 K	1093.8 ± 1
308.15 K	1087 ± 1
318.15 K	1080.5 ± 1

CCCCCCOS(=O)(=O)[O-].CC[n+]1ccn(C)c1 [3-ethyl-1-methyl-1H-imidazolium hexyl sulfate]
[1]
Conditions	mass density [kg/m3]
288.15 K	1136.6 ± 1.4
298.15 K	1129.6 ± 1.4
308.15 K	1123.1 ± 1.4
318.15 K	1116.6 ± 1.4

CCCCCCOS(=O)(=O)[O-].CC[n+]1ccn(C)c1 [3-ethyl-1-methyl-1H-imidazolium hexyl sulfate] + O
mass density [kg/m3], [2]
Conditions	x1 = 0.0501	x1 = 0.0965	x1 = 0.2075	x1 = 0.3982	x1 = 0.582	x1 = 0.7243	x1 = 0.7976	x1 = 0.9346	x1 = 1
288.15 K	1061.4 ± 1	1086.5 ± 1	1111.4 ± 1	1125.8 ± 1	1131.2 ± 1.1	1133.5 ± 1.2	1134.5 ± 1.2	1135.8 ± 1.3	1136.6 ± 1.4
298.15 K	1056 ± 1	1080.2 ± 1	1104.8 ± 1	1119 ± 1	1124.5 ± 1.1	1126.8 ± 1.1	1127.7 ± 1.2	1129 ± 1.3	1129.6 ± 1.4
308.15 K	1050.2 ± 1	1073.7 ± 1	1097.8 ± 1	1112.2 ± 1	1117.8 ± 1.1	1120.3 ± 1.1	1121.2 ± 1.2	1122.3 ± 1.3	1123.1 ± 1.4
318.15 K	1044.1 ± 1	1066.9 ± 1	1090.8 ± 1	1105.4 ± 1	1111.2 ± 1.1	1113.8 ± 1.1	1114.7 ± 1.2	1115.8 ± 1.3	1116.6 ± 1.4

CCCCCCCCOS(=O)(=O)[O-].CCn1cc[n+](C)c1 [1-ethyl-3-methylimidazolium octyl sulfate] + O
mass density [kg/m3], [2]
Conditions	x1 = 0.0053	x1 = 0.1002	x1 = 0.3923	x1 = 0.5963	x1 = 0.7373	x1 = 0.7747	x1 = 0.8545	x1 = 0.9371	x1 = 1
298.15 K	1005.3 ± 1	1060.6 ± 1	1086.3 ± 1	1090.5 ± 1	1092.1 ± 1	1092.4 ± 1	1093 ± 1	1093.5 ± 1	1093.8 ± 1
308.15 K	1001.8 ± 1	1054 ± 1	1079.6 ± 1	1083.8 ± 1	1085.5 ± 1	1085.7 ± 1	1086.4 ± 1	1086.9 ± 1	1087 ± 1
318.15 K	997.3 ± 1	1047.4 ± 1	1072.9 ± 1	1077.2 ± 1	1079.1 ± 1	1079.2 ± 1	1079.9 ± 1	1080.4 ± 1	1080.5 ± 1

CCO [ethanol]
[1]
Conditions	mass density [kg/m3]
288.15 K	794.4 ± 1
298.15 K	785.8 ± 1
308.15 K	777.1 ± 1
318.15 K	768.3 ± 1

CCCCOS(=O)(=O)[O-].CC[n+]1ccn(C)c1 [3-ethyl-1-methylimidazolium butyl sulfate]
[1]
Conditions	mass density [kg/m3]
288.15 K	1182.5 ± 1.1
298.15 K	1175.7 ± 1.1
308.15 K	1169 ± 1.1
318.15 K	1162.4 ± 1.1

O [water] + CCCCCCOS(=O)(=O)[O-].CC[n+]1ccn(C)c1
Conditions	mass density [kg/m3]
[2], 308.15 K, x2 = 0	994.1 ± 1

CCOS(=O)(=O)[O-].CCn1cc[n+](C)c1 [1-ethyl-3-methylimidazolium ethyl sulfate]
[1]
Conditions	mass density [kg/m3]
288.15 K	1245.3 ± 1.6
298.15 K	1238.3 ± 1.6
308.15 K	1231.6 ± 1.6
318.15 K	1224.9 ± 1.6

O [water] + CCOS(=O)(=O)[O-].CCn1cc[n+](C)c1
Conditions	mass density [kg/m3]
[2], 308.15 K, x2 = 0	994.1 ± 1

CCOS(=O)(=O)[O-].CCn1cc[n+](C)c1 [1-ethyl-3-methylimidazolium ethyl sulfate] + O
mass density [kg/m3], [2]
Conditions	288.15 K	298.15 K	308.15 K	318.15 K
x1 = 0.0319	1064.5 ± 1	1059.9 ± 1	1054.4 ± 1	1048.4 ± 1
x1 = 0.07	1114.1 ± 1	1108 ± 1	1101.8 ± 1	1095.1 ± 1
x1 = 0.1022	1141.9 ± 1	1135.3 ± 1	1128.5 ± 1	1121.5 ± 1
x1 = 0.1961	1186.1 ± 1	1178.9 ± 1	1171.8 ± 1	1164.6 ± 1
x1 = 0.2988	1208.5 ± 1	1201.4 ± 1	1194.3 ± 1	1187.2 ± 1
x1 = 0.395	1220.4 ± 1	1213.4 ± 1	1206.3 ± 1	1199.3 ± 1
x1 = 0.4939	1228.4 ± 1.1	1221.4 ± 1.1	1214.4 ± 1.1	1207.4 ± 1.1
x1 = 0.5829	1233.3 ± 1.1	1226.4 ± 1.1	1219.4 ± 1.1	1212.5 ± 1.1
x1 = 0.6798	1237.1 ± 1.2	1230.2 ± 1.2	1223.4 ± 1.2	1216.6 ± 1.2
x1 = 0.7975	1240.8 ± 1.3	1233.9 ± 1.3	1227.1 ± 1.3	1220.3 ± 1.3
x1 = 0.8726	1242.6 ± 1.4	1235.8 ± 1.4	1229 ± 1.4	1222.3 ± 1.4
x1 = 1	1245.3 ± 1.6	1238.3 ± 1.6	1231.6 ± 1.6	1224.9 ± 1.6

CCCCCCOS(=O)(=O)[O-].CC[n+]1ccn(C)c1 [3-ethyl-1-methyl-1H-imidazolium hexyl sulfate] + CCO
mass density [kg/m3], [2]
Conditions	x1 = 0.0977	x1 = 0.2202	x1 = 0.3246	x1 = 0.4377	x1 = 0.4947	x1 = 0.6214	x1 = 0.7252	x1 = 0.7455	x1 = 0.9063	x1 = 1
288.15 K	911.2 ± 1	990 ± 1	1031.7 ± 1	1063.2 ± 1.1	1075.5 ± 1.1	1097.3 ± 1.1	1110.9 ± 1.2	1113.2 ± 1.2	1128.5 ± 1.3	1136.6 ± 1.4
298.15 K	903.4 ± 1	982.4 ± 1	1024.3 ± 1	1056 ± 1.1	1068.4 ± 1.1	1090.4 ± 1.1	1104.1 ± 1.2	1106.4 ± 1.2	1121.8 ± 1.3	1129.6 ± 1.4
308.15 K	895.3 ± 1	974.9 ± 1	1017.1 ± 1	1048.9 ± 1.1	1061.4 ± 1.1	1083.5 ± 1.1	1097.4 ± 1.2	1099.7 ± 1.2	1115.2 ± 1.3	1123.1 ± 1.4
318.15 K	887.4 ± 1	967.4 ± 1	1009.8 ± 1	1042 ± 1.1	1054.4 ± 1.1	1076.8 ± 1.1	1090.7 ± 1.2	1093 ± 1.2	1108.8 ± 1.3	1116.6 ± 1.4

CCO [ethanol] + CCOS(=O)(=O)[O-].CCn1cc[n+](C)c1
[2], x2 = 0
Conditions	mass density [kg/m3]
288.15 K	794.4 ± 1
298.15 K	785.8 ± 1
308.15 K	777.1 ± 1
318.15 K	768.3 ± 1

CCCCOS(=O)(=O)[O-].CC[n+]1ccn(C)c1 [3-ethyl-1-methylimidazolium butyl sulfate] + CCO
mass density [kg/m3], [2]
Conditions	288.15 K	298.15 K	308.15 K	318.15 K
x1 = 0.0498	864.5 ± 1	856.2 ± 1	847.9 ± 1	839.5 ± 1
x1 = 0.0989	915.1 ± 1	907.1 ± 1	898.9 ± 1	890.9 ± 1
x1 = 0.1938	987 ± 1	979.3 ± 1	971.6 ± 1	963.8 ± 1
x1 = 0.2904	1037.4 ± 1	1030 ± 1	1022.4 ± 1	1014.8 ± 1
x1 = 0.3812	1072.1 ± 1	1064.8 ± 1	1057.6 ± 1	1050.4 ± 1
x1 = 0.4691	1098.2 ± 1	1091 ± 1	1083.9 ± 1	1076.9 ± 1
x1 = 0.4993	1105.9 ± 1	1098.8 ± 1	1091.1 ± 1	1083.7 ± 1
x1 = 0.5699	1122 ± 1	1114.9 ± 1	1107.9 ± 1	1101 ± 1
x1 = 0.6866	1143.7 ± 1	1136.7 ± 1	1129.7 ± 1	1122.8 ± 1
x1 = 0.7858	1158.4 ± 1	1151.6 ± 1	1144.7 ± 1	1138 ± 1
x1 = 0.8794	1169.9 ± 1	1163.1 ± 1	1156.3 ± 1	1149.6 ± 1
x1 = 1	1182.5 ± 1.1	1175.7 ± 1.1	1169 ± 1.1	1162.4 ± 1.1

CCCCOS(=O)(=O)[O-].CC[n+]1ccn(C)c1 [3-ethyl-1-methylimidazolium butyl sulfate] + O
mass density [kg/m3], [2]
Conditions	288.15 K	298.15 K	308.15 K	318.15 K
x1 = 0.0526	1081 ± 1	1075.8 ± 1	1069.6 ± 1	1063.2 ± 1
x1 = 0.0987	1114.3 ± 1	1107.5 ± 1	1100.5 ± 1	1093.4 ± 1
x1 = 0.2007	1146.1 ± 1	1139.1 ± 1	1131.9 ± 1	1124.7 ± 1
x1 = 0.2973	1159.3 ± 1	1152.3 ± 1	1145.3 ± 1	1138.3 ± 1
x1 = 0.3957	1167.2 ± 1	1160.2 ± 1	1153.2 ± 1	1146.3 ± 1
x1 = 0.4866	1171.7 ± 1	1164.8 ± 1	1158 ± 1	1151.1 ± 1
x1 = 0.5868	1175 ± 1	1168.4 ± 1	1161.5 ± 1	1154.7 ± 1
x1 = 0.6909	1177.9 ± 1	1171.1 ± 1	1164.3 ± 1	1157.6 ± 1
x1 = 0.7872	1179.6 ± 1	1172.9 ± 1	1166.2 ± 1	1159.5 ± 1
x1 = 0.8922	1181.4 ± 1	1174.5 ± 1	1167.9 ± 1	1161.2 ± 1
x1 = 0.9416	1181.8 ± 1.1	1175 ± 1	1168.3 ± 1	1161.7 ± 1
x1 = 1	1182.5 ± 1.1	1175.7 ± 1.1	1169 ± 1.1	1162.4 ± 1.1

CCOS(=O)(=O)[O-].CCn1cc[n+](C)c1 [1-ethyl-3-methylimidazolium ethyl sulfate] + CCO
mass density [kg/m3], [2]
Conditions	288.15 K	298.15 K	308.15 K	318.15 K
x1 = 0.0494	864.9 ± 1	856.6 ± 1	848.1 ± 1	839.7 ± 1
x1 = 0.1233	943.6 ± 1	935.6 ± 1	927.6 ± 1	919.5 ± 1
x1 = 0.2469	1035.3 ± 1	1027.6 ± 1	1019.9 ± 1	1012.3 ± 1
x1 = 0.3485	1088.4 ± 1.1	1080.9 ± 1.1	1073.4 ± 1	1066 ± 1
x1 = 0.4727	1136.8 ± 1.1	1129.5 ± 1.1	1122.2 ± 1.1	1115 ± 1.1
x1 = 0.5667	1164.9 ± 1.1	1157.7 ± 1.1	1150.6 ± 1.1	1143.5 ± 1.1
x1 = 0.6483	1185.3 ± 1.2	1178.2 ± 1.2	1171.2 ± 1.2	1164.2 ± 1.2
x1 = 0.7421	1205.3 ± 1.3	1198.3 ± 1.3	1191.3 ± 1.3	1184.4 ± 1.3
x1 = 0.827	1220.5 ± 1.4	1213.8 ± 1.4	1206.8 ± 1.4	1200 ± 1.3
x1 = 0.9211	1234.8 ± 1.5	1227.9 ± 1.5	1221.1 ± 1.5	1214.3 ± 1.5
x1 = 1	1245.3 ± 1.6	1238.3 ± 1.6	1231.6 ± 1.6	1224.9 ± 1.6

CCCCCCCCOS(=O)(=O)[O-].CCn1cc[n+](C)c1 [1-ethyl-3-methylimidazolium octyl sulfate] + CCO
mass density [kg/m3], [2]
Conditions	x1 = 0.098	x1 = 0.1901	x1 = 0.2985	x1 = 0.3955	x1 = 0.4964	x1 = 0.5975	x1 = 0.6844	x1 = 0.792	x1 = 0.9047	x1 = 1
288.15 K	906.4 ± 1	964.1 ± 1	1006.3 ± 1	1031.6 ± 1	1050.9 ± 1	1065.6 ± 1	1075.6 ± 1	1085.7 ± 1	1094.4 ± 1	1100.7 ± 1
298.15 K	898.5 ± 1	956.5 ± 1	998.9 ± 1	1024.4 ± 1	1043.9 ± 1	1058.7 ± 1	1068.8 ± 1	1078.9 ± 1	1087.5 ± 1	1093.8 ± 1
308.15 K	890.7 ± 1	949 ± 1	991.8 ± 1	1017.4 ± 1	1037 ± 1	1051.9 ± 1	1062.1 ± 1	1072.3 ± 1	1081 ± 1	1087 ± 1
318.15 K	882.8 ± 1	941.4 ± 1	984.4 ± 1	1010.3 ± 1	1030.1 ± 1	1045.2 ± 1	1055.4 ± 1	1065.8 ± 1	1074.4 ± 1	1080.5 ± 1
